Measurements reported in paper PMC2904801, “A Metazoan/Plant-like Capping Enzyme and Cap Modified Nucleotides in the Unicellular Eukaryote Trichomonas vaginalis” (PLoS Pathogens, 2010).

Molecular target: T1, TvCE (Trichomonas vaginalis, UniProt A2DUZ5)
T1 construct: gene TVAG_187730; full-length (561 residues, 69 kDa without tag), N-terminal His tag from pET200D, E. coli BL21, ~71 kDa monomer
T1 sequence (A2DUZ5 1-561): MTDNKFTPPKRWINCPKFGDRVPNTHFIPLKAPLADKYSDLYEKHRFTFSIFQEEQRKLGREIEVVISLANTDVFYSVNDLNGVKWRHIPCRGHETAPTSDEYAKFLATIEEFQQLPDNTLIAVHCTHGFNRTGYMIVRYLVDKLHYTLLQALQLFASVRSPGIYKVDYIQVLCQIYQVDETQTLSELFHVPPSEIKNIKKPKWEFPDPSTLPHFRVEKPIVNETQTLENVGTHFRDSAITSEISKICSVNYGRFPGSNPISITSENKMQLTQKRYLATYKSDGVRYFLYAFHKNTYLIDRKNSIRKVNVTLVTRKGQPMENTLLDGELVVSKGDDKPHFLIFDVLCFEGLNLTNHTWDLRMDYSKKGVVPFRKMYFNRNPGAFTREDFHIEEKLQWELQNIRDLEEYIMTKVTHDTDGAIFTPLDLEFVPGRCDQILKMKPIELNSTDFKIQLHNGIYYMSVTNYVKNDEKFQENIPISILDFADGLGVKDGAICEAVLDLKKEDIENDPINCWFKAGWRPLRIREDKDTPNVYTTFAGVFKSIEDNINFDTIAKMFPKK
Assay: SDS-PAGE autoradiography of covalent enzyme-GMP intermediate; cold NTP competition
Type: biochemical
Settings: guanylyltransferase domain; labelled compound; covalent enzyme-(lysyl-N)-GMP; 50 mM Tris-acetate pH 7.0, 5 mM DTT, 2.5 mM MgCl2, 37 °C

Nc1nc2c(ncn2[C@@H]2O[C@H](COP(=O)(O)OP(=O)(O)OP(=O)(O)O)[C@@H](O)[C@H]2O)c(=O)[nH]1 [[α-^32P]GTP]
SDS-PAGE autoradiography of covalent enzyme-GMP intermediate; cold NTP competiti: displayed an absolute specificity for a GTP substrate
